Measurements as given in paper PMC3886921, “Cofactor-Independent Phosphoglycerate Mutase from Nematodes Has Limited Druggability, as Revealed by Two High-Throughput Screens” (PLoS Neglected Tropical Diseases, 2014).

Experiments:
[1] = molecular target: T1, cofactor-independent phosphoglycerate mutase (iPGAM) (Brugia malayi, UniProt Q4VWF8); assay: coupled enzyme assay (NADH absorbance at […] nm), luminescence (Kinase-Glo) confirmation; assay type: biochemical
T1 construct: gene ipgm-1; Full-length, histidine-tagged
T1 sequence (Q4VWF8 1-515): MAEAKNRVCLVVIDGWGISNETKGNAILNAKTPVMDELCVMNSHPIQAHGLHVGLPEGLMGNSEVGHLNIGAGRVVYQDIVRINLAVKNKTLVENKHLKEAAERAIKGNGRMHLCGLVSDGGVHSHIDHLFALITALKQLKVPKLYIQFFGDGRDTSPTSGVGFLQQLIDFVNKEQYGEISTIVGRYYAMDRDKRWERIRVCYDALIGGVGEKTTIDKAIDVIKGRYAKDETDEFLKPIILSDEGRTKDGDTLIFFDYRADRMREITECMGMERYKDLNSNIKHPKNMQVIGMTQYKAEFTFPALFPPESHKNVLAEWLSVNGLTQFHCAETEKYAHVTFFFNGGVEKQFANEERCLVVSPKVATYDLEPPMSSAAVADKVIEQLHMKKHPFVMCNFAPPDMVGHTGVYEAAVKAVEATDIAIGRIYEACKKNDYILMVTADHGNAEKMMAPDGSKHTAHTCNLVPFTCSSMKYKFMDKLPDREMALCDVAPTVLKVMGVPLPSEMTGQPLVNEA

[2] = molecular target: T2, cofactor-independent phosphoglycerate mutase (iPGAM) (Caenorhabditis elegans, UniProt G5EFZ1); assay: HTS coupled enzyme assay at […] ([…] inhibition), re-tested and reconfirmed; assay type: biochemical
T2 construct: gene ipgm-1; Full-length, histidine-tagged
T2 sequence (G5EFZ1 1-539): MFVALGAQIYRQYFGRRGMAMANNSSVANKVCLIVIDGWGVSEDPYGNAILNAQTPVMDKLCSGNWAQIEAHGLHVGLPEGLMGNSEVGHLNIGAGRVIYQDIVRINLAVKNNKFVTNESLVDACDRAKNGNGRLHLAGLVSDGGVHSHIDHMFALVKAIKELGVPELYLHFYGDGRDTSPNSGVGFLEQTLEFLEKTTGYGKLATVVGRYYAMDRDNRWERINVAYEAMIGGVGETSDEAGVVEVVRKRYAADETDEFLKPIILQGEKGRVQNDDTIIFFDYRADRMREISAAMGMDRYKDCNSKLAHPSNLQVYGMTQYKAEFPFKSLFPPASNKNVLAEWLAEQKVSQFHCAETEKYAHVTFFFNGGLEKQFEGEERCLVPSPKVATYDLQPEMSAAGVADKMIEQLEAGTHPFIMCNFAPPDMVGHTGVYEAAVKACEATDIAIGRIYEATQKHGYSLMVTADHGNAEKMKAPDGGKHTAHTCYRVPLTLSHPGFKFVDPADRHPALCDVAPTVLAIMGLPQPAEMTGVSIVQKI

[3] = molecular target: T1, cofactor-independent phosphoglycerate mutase (iPGAM); assay: coupled enzyme assay (NADH absorbance at […] nm), dose-response; luminescence (Kinase-Glo) confirmation; assay type: biochemical
[4] = substrate: O=C(O)[C@H](O)COP(=O)(O)O; assay: enzyme kinetics (Km), coupled assay; assay type: biochemical, Caenorhabditis elegans; settings: Mg2+
[5] = substrate: O=C(O)[C@H](O)COP(=O)(O)O; assay: enzyme kinetics (Km), coupled assay; assay type: biochemical, Brugia malayi; settings: Mg2+

For CCc1cc2c[n+](C3CCCCC3)sc2s1 [Genz-2], the IC50 [1] was > 10 µM and the inhibition at 10 µM [2] was > 40%.

With Nc1cc2cccnc2c2ncccc12 [NCDS-1, 5-amino-1,10-phenanthroline] the IC50 [3] was > 10 µM.

B1: cofactor-independent phosphoglycerate mutase (iPGAM) (Caenorhabditis elegans) (protein)
chain: MFVALGAQIYRQYFGRRGMAMANNSSVANKVCLIVIDGWGVSEDPYGNAILNAQTPVMDKLCSGNWAQIEAHGLHVGLPEGLMGNSEVGHLNIGAGRVIYQDIVRINLAVKNNKFVTNESLVDACDRAKNGNGRLHLAGLVSDGGVHSHIDHMFALVKAIKELGVPELYLHFYGDGRDTSPNSGVGFLEQTLEFLEKTTGYGKLATVVGRYYAMDRDNRWERINVAYEAMIGGVGETSDEAGVVEVVRKRYAADETDEFLKPIILQGEKGRVQNDDTIIFFDYRADRMREISAAMGMDRYKDCNSKLAHPSNLQVYGMTQYKAEFPFKSLFPPASNKNVLAEWLAEQKVSQFHCAETEKYAHVTFFFNGGLEKQFEGEERCLVPSPKVATYDLQPEMSAAGVADKMIEQLEAGTHPFIMCNFAPPDMVGHTGVYEAAVKACEATDIAIGRIYEATQKHGYSLMVTADHGNAEKMKAPDGGKHTAHTCYRVPLTLSHPGFKFVDPADRHPALCDVAPTVLAIMGLPQPAEMTGVSIVQKI
notes: Full-length, histidine-tagged
Work on B1 yielded a Km [4] of 0.38 mM.

B2: cofactor-independent phosphoglycerate mutase (iPGAM) (Brugia malayi) (protein)
chain: MAEAKNRVCLVVIDGWGISNETKGNAILNAKTPVMDELCVMNSHPIQAHGLHVGLPEGLMGNSEVGHLNIGAGRVVYQDIVRINLAVKNKTLVENKHLKEAAERAIKGNGRMHLCGLVSDGGVHSHIDHLFALITALKQLKVPKLYIQFFGDGRDTSPTSGVGFLQQLIDFVNKEQYGEISTIVGRYYAMDRDKRWERIRVCYDALIGGVGEKTTIDKAIDVIKGRYAKDETDEFLKPIILSDEGRTKDGDTLIFFDYRADRMREITECMGMERYKDLNSNIKHPKNMQVIGMTQYKAEFTFPALFPPESHKNVLAEWLSVNGLTQFHCAETEKYAHVTFFFNGGVEKQFANEERCLVVSPKVATYDLEPPMSSAAVADKVIEQLHMKKHPFVMCNFAPPDMVGHTGVYEAAVKAVEATDIAIGRIYEACKKNDYILMVTADHGNAEKMMAPDGSKHTAHTCNLVPFTCSSMKYKFMDKLPDREMALCDVAPTVLKVMGVPLPSEMTGQPLVNEA
notes: Full-length, histidine-tagged
Molecule B2 has a Km [5] of 0.37 mM.
